Results on four compounds are retold here after paper PMC9027599, “Secondary Metabolites in Basil, Bio-Insecticide, Inhibition Effect, and In Silico Molecular Docking against Proteolytic Enzymes of the Red Palm Weevil (Rhynchophorus ferrugineus)” (Plants, 2022).

Assay [1] concerns proteases from the fourth larval instars of R. ferrugineus's midgut. The experiment in a line: Specific protease inhibitors on midgut proteases (in vitro, Figure S2). Format: biochemical, Rhynchophorus ferrugineus. The note with it: purified proteases of fourth larval instar midgut. The method, then: The activity of cysteine proteinase was determined in the fourth midgut instar larval homogenate of R. ferrugineus using the substrate Z-Phe-Arg-MNA [1]. Ten larvae were carefully removed, dissected, and rinsed repeatedly with NaCl solution (0.9% (w/v). The midgut instar was homogenized in protease assay buffer (500 µL) [5 mM DTT, 50 mM HEPS (N-2-Hydroxyethyl piperazin-N’-2-ethanesulfonic acid), pH 8.0, and 0.1 percent Triton X-100]. The reaction mixture was centrifuged for 30 min at 5000 rpm (Sigma 3k30 cooling centrifuge). The supernatant was utilized to determine the overall activity of proteolytic enzymes and the protein content. The supernatant (10 µL) was incubated for 30 min at 37 °C, and the volume was adjusted to 60 µL using assay buffer (pH 8) before adding 100 µL of substrate (0.5 mM). Prior to adding the substrate, 10 µL enzyme samples were pre-incubated with iodoacetic acid for 10 min. After 60 min at 37 °C of mixture incubation, the reaction was halted with the addition of 1.5 mL mersalyl (5 mM), 0.02 mg/mL fast garnet reactive solution, and 2% Tween 20. The reaction was centrifuged (at 5000 rpm, 6 min), then the absorbance was determined (at 520 nm). The activity of cysteine proteinase was measured using an ELISA quick plate reader at the OD520/60 min/mg of midgut protein. As a blank, a test mixture devoid of enzyme was used. […] The fourth homogenates of midgut larval were produced as reported before in the experiment for determining enzyme activity. […]
To learn more about the proteases found in homogenate preparations of R. ferrugineus fourth midgut larval instars, inhibitors from many different types of mechanisms were used. […] The absorbance of the enzymes was determined using an ELISA plate quick reader at various wavelengths. The percentage activity of the control enzyme for each inhibitor was evaluated for each enzyme. Protease activity was assayed in vivo in the R. ferrugineus fourth midgut larval instars, which were treated with 1, 10, 50, 100, 500, 1000, and 5000 mg/L of extracts or compounds, measured as described above. […]

Assay [2] concerns the target metalloprotease. Description: Metalloproteinase activity, azocasein (in vitro). As to conditions: fourth instar larvae midgut homogenate. The format is biochemical, Rhynchophorus ferrugineus. The method, then: (§1) A substrate azocasein assessed the metalloproteinases activity in the fourth midgut instar larval homogenate. Ten larvae were carefully removed, dissected, and rinsed repeatedly with NaCl solution (0.9% (w/v). […] After homogenization, the homogenates were centrifuged at 5000 rpm (for 30 min) using a Sigma centrifuge 3k30, and the supernatant was utilized to determine enzyme activity and protein content. The supernatant per experiment (10 µL) was incubated for 20 min at 37 °C, and the volume was adjusted to 60 µL using assay buffer pH 8 before adding azocasein (200 µL, 2% (w/v)). In all instances, 10 µL enzyme samples were incubated for 10 min (except EDTA with 20 min), and EDTA was used as a blocker of metalloproteinase activity before being added to the specific substrate. The reaction was interrupted with 300 µL of trichloroacetic acid (TCA cold, 10% (v/v) and continued at 37 °C for 180 min. The reaction mixture was then centrifuged at 5000 rpm for 20 min (Sigma centrifuge 3k30), sodium hydroxide (10 µL of 10 N) was incorporated into the supernatant, then absorbance was determined using an ELISA plate reader at 450 nm. As a blank, an assay mixture devoid of the enzyme was devoted, the specific activity was determined using the OD450 mg^−1 protein min^−1 value, and a blank solution sample devoid of enzyme solution was determined. To learn more about the proteases found in homogenate preparations of R. ferrugineus fourth midgut larval instars, inhibitors from many different types of mechanisms were used. […] As a control, an assay combination devoid of inhibitors was utilized. The absorbance of the enzymes was determined using an ELISA plate quick reader at various wavelengths. The percentage activity of the control enzyme for each inhibitor was evaluated for each enzyme. […] Larvae were exposed for 24 h to leaf discs treated with extract and compounds.

Assay [3] concerns trypsin-like serine proteinase. The experiment in a line: Trypsin-like activity of midgut from larvae treated 24 h (in vivo). Details: species or system Rhynchophorus ferrugineus. The note with it: midgut of fourth instar larvae treated for 24 h. The method, then:
(§2) The midguts were homogenized in the assay buffer (100 mM Tris-HCl, pH 8.1) and centrifuged for 30 min at 8000 rpm (Sigma 3K 30, rotors No. 12158). […] […] (100 mg/mL in DMF), BAρNA (100 mg/mL in DMSO), and […] (100 mg/mL in DMF) stock substrates were diluted in the assay buffer to 1 mg/mL, and substrate volume was 50 μL. […] The activity was quantified using an ELISA plate reader at a wavelength of 405 nm. As an empty well, an assay combination containing a denaturation enzyme was utilized instead of an active enzyme. […] To learn more about the proteases found in homogenate preparations of R. ferrugineus fourth midgut larval instars, inhibitors from many different types of mechanisms were used. […] As a control, an assay combination devoid of inhibitors was utilized. The absorbance of the enzymes was determined using an ELISA plate quick reader at various wavelengths. The percentage activity of the control enzyme for each inhibitor was evaluated for each enzyme. […] Larvae were exposed for 24 h to leaf discs treated with extract and compounds.

For assay [4], the system named is cysteine protease. Description: Cysteine protease activity of midgut from larvae treated 24 h (in vivo). Set-up: species or system Rhynchophorus ferrugineus. As to conditions: midgut of fourth instar larvae treated for 24 h. The method, then: The activity of cysteine proteinase was determined in the fourth midgut instar larval homogenate of R. ferrugineus using the substrate Z-Phe-Arg-MNA [1]. […] The reaction was centrifuged (at 5000 rpm, 6 min), then the absorbance was determined (at 520 nm). The activity of cysteine proteinase was measured using an ELISA quick plate reader at the OD520/60 min/mg of midgut protein. […]
As a control, an assay combination devoid of inhibitors was utilized. The absorbance of the enzymes was determined using an ELISA plate quick reader at various wavelengths. The percentage activity of the control enzyme for each inhibitor was evaluated for each enzyme. Protease activity was assayed in vivo in the R. ferrugineus fourth midgut larval instars, which were treated with 1, 10, 50, 100, 500, 1000, and 5000 mg/L of extracts or compounds, measured as described above. […]

Assay [5] has as its system metalloprotease. Description: Metalloprotease activity of midgut from larvae treated 24 h (in vivo). Set-up: species or system Rhynchophorus ferrugineus. As to conditions: midgut of fourth instar larvae treated for 24 h. The method, then: as §1
In assay [6] the test system is total proteases. The experiment in a line: Total protease activity of midgut from larvae treated 24 h (in vivo). Set-up: species or system Rhynchophorus ferrugineus. As to conditions: midgut of fourth instar larvae treated for 24 h. The method, then:
(§3) The Lowry technique was used to determine the protein concentrations. Total proteolytic activity was determined in the fourth midgut instar larval (lab strain) homogenate of R. ferrugineus with azocasein in accordance with […] et al. […] [70]. […] Using a Sigma 3k30 cooling centrifuge, reserve homogenates prepared in a previous stage were spun at 5000 rpm for 30 min. Estimates of protein content and total proteolytic enzyme activity were made using the supernatants. The supernatant (10 μL) was incubated at 37 °C for 20 min, and the volume was adjusted to 60 μL using an assay buffer (pH 8), before adding azocasien (200 μL, 2% (w/v)). […] Following that, to activate the reaction, the substrate was introduced 20 min for Leupeptin, so the reaction was halted after 180 min at 37 °C with 300 μL of cool tri-chloroacetic acid (TCA) (10% (v/v). The mixture was centrifuged for 20 min at 5000 rpm (Sigma 3k30 cooling centrifuge). […] To learn more about the proteases found in homogenate preparations of R. ferrugineus fourth midgut larval instars, inhibitors from many different types of mechanisms were used. […] As a control, an assay combination devoid of inhibitors was utilized. The absorbance of the enzymes was determined using an ELISA plate quick reader at various wavelengths. The percentage activity of the control enzyme for each inhibitor was evaluated for each enzyme. […] Larvae were exposed for 24 h to leaf discs treated with extract and compounds.

Assay [7] has as its target trypsin-like serine proteinase. Description: Serine proteinase microplate assay, BApNA (in vitro). Format: biochemical, Rhynchophorus ferrugineus. The note with it: fourth instar larvae midgut homogenate. The method, then: as §2, with “The specific activities of serine proteinase were determined using a rapid quick microplate assay with substrates in reaction mixtures (150 μL) including a serine protease assay buffer, according to […] et al. and Olga et al. with modifications. The midguts” for “The midguts”

Assay [8] addresses cysteine protease. The experiment in a line: Cysteine proteinase activity, Z-Phe-Arg-MNA (in vitro). The format is biochemical, Rhynchophorus ferrugineus. As to conditions: fourth instar larvae midgut homogenate. The method, then:
The activity of cysteine proteinase was determined in the fourth midgut instar larval homogenate of R. ferrugineus using the substrate Z-Phe-Arg-MNA [1]. Ten larvae were carefully removed, dissected, and rinsed repeatedly with NaCl solution (0.9% (w/v). The midgut instar was homogenized in protease assay buffer (500 µL) [5 mM DTT, 50 mM HEPS (N-2-Hydroxyethyl piperazin-N’-2-ethanesulfonic acid), pH 8.0, and 0.1 percent Triton X-100]. The reaction mixture was centrifuged for 30 min at 5000 rpm (Sigma 3k30 cooling centrifuge). The supernatant was utilized to determine the overall activity of proteolytic enzymes and the protein content. The supernatant (10 µL) was incubated for 30 min at 37 °C, and the volume was adjusted to 60 µL using assay buffer (pH 8) before adding 100 µL of substrate (0.5 mM). Prior to adding the substrate, 10 µL enzyme samples were pre-incubated with iodoacetic acid for 10 min. After 60 min at 37 °C of mixture incubation, the reaction was halted with the addition of 1.5 mL mersalyl (5 mM), 0.02 mg/mL fast garnet reactive solution, and 2% Tween 20. The reaction was centrifuged (at 5000 rpm, 6 min), then the absorbance was determined (at 520 nm). The activity of cysteine proteinase was measured using an ELISA quick plate reader at the OD520/60 min/mg of midgut protein. As a blank, a test mixture devoid of enzyme was used. […] The fourth homogenates of midgut larval were produced as reported before in the experiment for determining enzyme activity. As previously disclosed, the inhibitory experiment was performed using a microplate assay. A series of inhibitor concentrations was created to determine the inhibitor’s maximal inhibitory effect. Leupeptin concentrations of 0.01, 0.05, 0.1, and 1.0 mM, PMSF concentrations of 0.1, 1.0, 10, and 50 mM, TLCK and TPCK concentrations of 0.01, 0.05, 0.1, 1, 50, and 100 mM, EDTA concentrations of 0.1, 1, 10, 50, and 100 mM, and iodoacetic acid concentrations of 0.01, 0.05, 0.1, and 1 mM.
As a control, an assay combination devoid of inhibitors was utilized. The absorbance of the enzymes was determined using an ELISA plate quick reader at various wavelengths. The percentage activity of the control enzyme for each inhibitor was evaluated for each enzyme. Protease activity was assayed in vivo in the R. ferrugineus fourth midgut larval instars, which were treated with 1, 10, 50, 100, 500, 1000, and 5000 mg/L of extracts or compounds, measured as described above. Larvae were exposed for 24 h to leaf discs treated with extract and compounds.

Assay [9] concerns total proteases. Description: Total proteolytic activity of fourth instar midgut homogenate, azocasein (in vitro). Format: biochemical, Rhynchophorus ferrugineus. As to conditions: fourth instar larvae midgut homogenate. The method, then:
as §3

On to `Cc1ccc(S(=O)(=O)N[C@@H](CCCCN)C(=O)CCl)cc1` [TLCK], for which the “effect of specific inhibitor on midgut proteases” value in assay [1] is listed as “dramatically suppressed”.
As to `C[C@H]1[C@H](C)CC[C@]2(C(=O)O)CC[C@]3(C)C(=CC[C@@H]4[C@@]5(C)CC[C@H](O)C(C)(C)[C@@H]5CC[C@]43C)[C@H]12` [Ursolic acid], the “IC50 against metalloprotease (in vitro)” value in assay [2] is 119.4 mg/L. The “IC50 against trypsin-like serine proteinase (in vivo)” value in assay [3] amounted to 235.1 mg/L. Further, the “IC50 against cysteine protease (in vivo)” value in assay [4] turned out to be 685.2 mg/L. Further, the “IC50 against metalloprotease (in vivo)” value in assay [5] was determined as 548.3 mg/L. Moreover, in [6], the “IC50 against total proteases (in vivo)” value was 279.5 mg/L. Besides, in assay [7], the “IC50 against trypsin-like serine proteinase (in vitro)” value was found to be 57.4 mg/L. Besides, the “IC50 against cysteine protease (in vitro)” value in assay [8] came to 58.2 mg/L. The “IC50 against total proteases (in vitro)” value in assay [9] was 67.2 mg/L.
In the case of `O=C(O)CI` [iodoacetic acid], the “effect of specific inhibitor on midgut proteases” value in assay [1] is “dramatically suppressed”.
On the same count and under the same terms, the result for `Cc1ccc(S(=O)(=O)N[C@@H](Cc2ccccc2)C(=O)CCl)cc1` [TPCK] reads “dramatically suppressed”.
